What was measured:
[1] = system: individual with hip pain and lower back pain associated with spinal fusion surgery; assay: Treatment of post laminectomy syndrome; assay type: in vivo, human; settings: glycerol tincture, ingested, self-report
Method: An individual with hip pain and lower back pain associated with spinal fusion surgery was administered a glycerol tincture containing the cannabidiol anion.

[2] = system: individual with social anxiety associated with presenting at business meetings; assay: Treatment of social anxiety; assay type: in vivo, human; settings: beverage given before presenting at a business meeting; self-report
Method: An individual who presented with social anxiety associated with presenting at business meetings was administered a beverage containing the cannabidiol anion before presenting.

[3] = system: individual with back pain associated with driving for prolonged periods of time; assay: Treatment of acute back pain; assay type: in vivo, human; settings: glycerol tincture, ingested; self-report of one individual
Method: An individual who presented with back pain associated with driving for prolonged periods of time was administered a glycerol tincture containing the cannabidiol anion.

[4] = system: individual with cramping and restless legs syndrome; assay: Treatment of cramping and restless legs syndrome; assay type: in vivo, human; settings: glycerol tincture before sleep; self-report of one individual
Method: An individual who presented with cramping and restless legs syndrome was administered a glycerol tincture containing the cannabidiol anion before sleep.

[5] = system: individual with arthritis; assay: Treatment of arthritis; assay type: in vivo, human; settings: glycerol tincture; self-report of one individual
Method: An individual who was unable to fill […] hydroxychloroquine prescription to treat the arthritis during the COVID-19 pandemic was administered a glycerol tincture containing the cannabidiol anion.

[6] = system: individual with chronic pain; assay: Treatment of chronic pain; assay type: in vivo, human; settings: glycerol tincture; self-report of one individual
Method: An individual who presented with chronic pain was administered a glycerol tincture containing the cannabidiol anion.

[7] = system: individual with knee pain associated with inflammation caused by trauma from a fall; assay: Treatment of knee pain; assay type: in vivo, human; settings: glycerol tincture, ingested; self-report of one individual
Method: An individual who presented with knee pain associated with inflammation caused by trauma from a fall was administered a glycerol tincture containing the cannabidiol anion.

[8] = system: dog that suffers from chronic seizures; assay: Treatment of epilepsy; assay type: in vivo; settings: report of the dog's owners
Method: A dog that suffers from chronic seizures was administered a glycerol tincture containing the cannabidiol anion immediately after the onset of a seizure.

[9] = system: individual with hip pain associated with sitting; assay: Treatment of chronic hip pain; assay type: in vivo, human; settings: glycerol tincture, ingested; self-report of one individual
Method: An individual who presented with hip pain associated with sitting was administered a glycerol tincture containing the cannabidiol anion.

[10] = system: individual with cancer pain caused by throat cancer; assay: Treatment of cancer pain; assay type: in vivo, human; settings: water containing the anion, ingested; self-report of one individual
Method: An individual who presented with cancer pain caused by throat cancer was administered water containing the cannabidiol anion (2-[6-isopropenyl-3-methylcyclohex-2-en-1-yl]-3-hydroxy-5-pentylphenolate).

individual with anxiety = assay: Treatment of anxiety; assay type: in vivo, human
Method: An individual was administered a beverage containing the cannabidiol anion prior to driving to an airport to catch a flight that was scheduled to leave within thirty minutes of the arrival at the airport.
An individual who suffers from chronic anxiety was administered a glycerol tincture containing the cannabigerol anion.

[11] = system: individual with chronic back pain associated with standing; assay: Treatment of chronic back pain; assay type: in vivo, human; settings: glycerol tincture, ingested; self-report of one individual
Method: An individual who presented with chronic back pain associated with standing was administered a glycerol tincture containing the cannabidiol anion.

[12] = system: individual with Inflammatory Bowel Disease; assay: Treatment of Inflammatory Bowel Disease; assay type: in vivo, human; settings: glycerol tincture; self-report of one individual
Method: An individual who presented with Inflammatory Bowel Disease was administered a glycerol tincture containing the cannabigerol anion.

[13] = system: individual with Crohn's disease; assay: Treatment of Crohn's disease; assay type: in vivo, human; settings: glycerol tincture; self-report of one individual
Method: An individual who presented with Crohn's disease was administered a glycerol tincture containing the cannabigerol anion.

[14] = system: individual with chronic insomnia; assay: Treatment of insomnia; assay type: in vivo, human; settings: glycerol tincture before sleep; self-report of one individual
Method: An individual who presented with chronic insomnia was administered a glycerol tincture containing the cannabigerol anion before sleep.

| Compound | reported effect on hip pain and lower back pain [1] | reported effect on social anxiety and performance [2] | reported effect on back pain [3] | reported effect on sleep quality [4] | reported effectiveness at treating arthritis compared with hydroxychloroquine [5] | reported effect in chronic pain (standard of living) [6] | reported effect on mobility and knee pain [7] | effect on seizures ([8]; glycerol tincture immediately after the onset of a seizure) | effect on quality of life ([8]; glycerol tincture) | reported effect on hip pain [9] | reported effect on throat pain [10] | reported anxiety during a drive to an airport (individual with anxiety; beverage given prior to driving, self-report of one individual) | reported effect on chronic back pain [11] | reported effect on symptoms of Inflammatory Bowel Disease [12] | reported effect on symptoms of Crohn's disease [13] | reported effect on onset and quality of sleep [14] | reported effect on chronic anxiety symptoms (individual with anxiety; glycerol tincture, individual who suffers from chronic anxiety, self-report) |
| --- | --- | --- | --- | --- | --- | --- | --- | --- | --- | --- | --- | --- | --- | --- | --- | --- | --- |
| C=C(C)C1CCC(C)=CC1c1c(O)cc(CCCCC)cc1O (centres unmarked) [cannabidiol anion, 2-[6-isopropenyl-3-methylcyclohex-2-en-1-yl]-3-hydroxy-5-pentylphenolate] | notable alleviation of hip pain and lower back pain within minutes of ingestion | reduced anxiety and improved performance during the business meeting | notable alleviation of the back pain within minutes of ingestion | significant improvement in sleep quality | more effective at treating their arthritis than hydroxychloroquine | significant improvement in their standard of living | improved mobility and alleviation of knee pain within minutes of ingestion | both instantaneously and consistently arrested multiple seizures in the dog | significantly improved the dog's quality of life | notable alleviation of the hip pain within minutes of ingestion | notable alleviation of throat pain within minutes of ingestion | notable absence of anxiety | notable alleviation of the back pain within minutes of ingestion | – | – | – | – |
| CCCCCc1cc(O)c(CC=C(C)CCC=C(C)C)c(O)c1 [cannabigerol anion, 2-[3,7-dimethylocta-2,6-diene-1-yl]-3-hydroxy-5-pentylphenolate] | – | – | – | – | – | – | – | – | – | – | – | – | – | significant improvement in their symptoms of Inflammatory Bowel Disease | significant improvement in their symptoms of Crohn's disease | significant improvement in the onset and quality of their sleep | significant improvement in their anxiety symptoms |

Reference: patent US12161608B2, “Methods of preventing and treating health conditions using cannabinoid anions” (NATURAL EXTRACTION SYSTEMS, LLC, priority 2019, dated 2024)
